Structures are written as SMILES. Read-outs that look alike come from different tables or passages of the source. A value given as a limit tells only on which side of the number the result lay.

Series [1] can be described thus: Plasma Stability Assay of Example A3, mouse plasma. Conditions: % of prodrug compound remaining, 37° C.
The nature of series [2]: Plasma Stability Assay of Example A3, human plasma. The following applies: % of prodrug compound remaining, 37° C.
For series [3] the following is noted: 5 µM.
Protocol: 50 uL aliquots of positive controls and test compounds spiked into rat or human plasma (n=2) were added to a pre-warmed plate (37° C.) and shaken at 50 rpm. At each respective time point, the reaction was stopped by adding 500 μL of acetonitrile containing internal standards (100 nM aprozolam, 200 nM caffeine, 100 nM tolbutamide). All samples were vortexed for 10 minutes, followed by centrifugation at 3,220 g for 30 minutes to precipitate proteins. 100 μL of the supernatant is transferred to a new plate. The supernatant will be diluted with ultrapure water according to the LC-MS signal response and peak shape.
For series [4] the following is noted: 5 µM. This is another data set of the same source.

For the compound `COc1ccc([C@@]23CCC(OC(=O)C(c4ccccc4)c4ccccc4)=C[C@@H]2N(C)CC3)cc1OC` [Compound 306, [(3aS,7aS)-3a-(3,4-dimethoxyphenyl)-1-methyl-3,4,5,7a-tetrahydro-2H-indol-6-yl] 2,2-diphenylacetate], the “Mouse Plasma Prodrug (%)” value in series [1] (0.0 min) is recorded as 100.0%; in series [1] (15 min), 6.2%; in series [1] (60 min), 1.6%; in series [1] (120 min) it was 0.4%; in series [1] (240 min) it was 0.1%. Moreover, the “Human Plasma Prodrug (%)” value in series [2] (0.0 min) is given as 100.0%.
For the compound `COc1ccc([C@@]23CCC(OC(=O)c4cccc(N(C)C)c4)=C[C@@H]2N(C)CC3)cc1OC` [Compound 307, [(3aS,7aS)-3a-(3,4-dimethoxyphenyl)-1-methyl-3,4,5,7a-tetrahydro-2H-indol-6-yl] 3-(dimethylamino)benzoate], the “Mouse Plasma Prodrug (%)” value worked out at 100.0% in series [1] (0.0 min); 3.8% in series [1] (30 min); 0.1% in series [1] (60 min); 0.0% in series [1] (120 min); 0.0% in series [1] (240 min). For the same compound, the figures for the “Human Plasma Prodrug (%)” value in series [2] (0.0 min) and in series [2] (60 min) were 100.0% and 83.0%, respectively.
Consider `COc1ccc([C@@]23CCC(OC(=O)C(C)(C)C)=C[C@@H]2N(C)CC3)cc1OC` [Compound 309, [(3aS,7aS)-3a-(3,4-dimethoxyphenyl)-1-methyl-3,4,5,7a-tetrahydro-2H-indol-6-yl] 2,2-dimethylpropanoate], for which the “Mouse Plasma Prodrug (%)” value in series [1] (0.0 min) is recorded as 100.0%; in series [1] (60 min) it was 8.2%; in series [1] (120 min) it was 0.0%; in series [1] (240 min), 0.0%. The “Human Plasma Prodrug (%)” value in series [2] (0.0 min) stood at 100.0%; in series [2] (120 min), 3.6%; in series [2] (240 min), 2.0%.
Take `COc1ccc([C@@]23CCC(OC(=O)C4CC4)=C[C@@H]2N(C)CC3)cc1OC` [Compound 312, [(3aS,7aS)-3a-(3,4-dimethoxyphenyl)-1-methyl-3,4,5,7a-tetrahydro-2H-indol-6-yl] cyclopropanecarboxylate]: the “Mouse Plasma Prodrug (%)” value in series [1] (0.0 min) is reported as 100.0%; in series [1] (15 min), 3.5%; in series [1] (30 min), 1.6%; in series [1] (60 min) it was 2.2%; in series [1] (120 min) it was 2.8%; in series [1] (240 min), 0.8%. The “Human Plasma Prodrug (%)” value in series [2] (0.0 min) is reported as 100.0%; in series [2] (15 min), 8.1%; in series [2] (30 min), 6.2%.
As to `C/C=C(\C)C(=O)OC1=C[C@@H]2N(C)CC[C@]2(c2ccc(OC)c(OC)c2)CC1` [Compound 313, [(3aS,7aS)-3a-(3,4-dimethoxyphenyl)-1-methyl-3,4,5,7a-tetrahydro-2H-indol-6-yl](E)-2-methylbut-2-enoate], the “Mouse Plasma Prodrug (%)” value is recorded as 100.0% in series [1] (0.0 min); 2.1% in series [1] (15 min); 0.7% in series [1] (30 min); 0.1% in series [1] (60 min); 0.0% in series [1] (120 min); 0.0% in series [1] (240 min). Further, the “Human Plasma Prodrug (%)” value in series [2] (0.0 min) is listed as 100.0%; in series [2] (120 min) it was 2.4%; in series [2] (240 min), 0.4%.
Consider `C=C(C)C(=O)OC1=C[C@@H]2N(C)CC[C@]2(c2ccc(OC)c(OC)c2)CC1` [Compound 315, [(3aS,7aS)-3a-(3,4-dimethoxyphenyl)-1-methyl-3,4,5,7a-tetrahydro-2H-indol-6-yl]-2-methylprop-2-enoate], for which the “Mouse Plasma Prodrug (%)” value in series [1] (0.0 min) amounted to 100.0%; in series [1] (15 min) it was 5.3%; in series [1] (30 min), 2.4%; in series [1] (60 min), 1.3%; in series [1] (120 min) it was 2.0%; in series [1] (240 min), 1.9%. Also, the “Human Plasma Prodrug (%)” value in series [2] (0.0 min) came to 100.0%; in series [2] (30 min), 2.3%; in series [2] (60 min), 0.5%; in series [2] (120 min), 0.2%; in series [2] (240 min) it was 0.0%.
With `COc1ccc([C@@]23CCC(OC(=O)c4ccc(F)cc4)=C[C@@H]2N(C)CC3)cc1OC` [Compound 353, (3aS,7aS)-3a-(3,4-dimethoxyphenyl)-1-methyl-2,3,3a,4,5,7a-hexahydro-1H-indol-6-yl 4-fluorobenzoate], the “Mouse Plasma Prodrug (%)” value in series [1] (0.0 min) is 100%; in series [1] (15 min), 0%; in series [1] (30 min), 0%; in series [1] (60 min) it was 0%; in series [1] (120 min), 0%; in series [1] (240 min), 0%. Further, in series [2] (0.0 min), the “Human Plasma Prodrug (%)” value is reported as 100%.
As to `COc1ccc([C@@]23CCC(OC(=O)c4ccc(C#N)cc4)=C[C@@H]2N(C)CC3)cc1OC` [Compound 354, (3aS,7aS)-3a-(3,4-dimethoxyphenyl)-1-methyl-2,3,3a,4,5,7a-hexahydro-1H-indol-6-yl 4-cyanobenzoate], the “Mouse Plasma Prodrug (%)” value was found to be 100% in series [1] (0.0 min); 5% in series [1] (15 min); 7% in series [1] (30 min); 5% in series [1] (60 min); 4% in series [1] (120 min); 0% in series [1] (240 min). The “Human Plasma Prodrug (%)” value in series [2] (0.0 min) is reported as 100%; in series [2] (15 min) it was 93%; in series [2] (30 min), 72%; in series [2] (60 min), 42%; in series [2] (120 min), 13%; in series [2] (240 min) it was 1%.
In the case of `COc1ccc([C@@]23CCC(OC(=O)c4ccc(N(C)C)cc4)=C[C@@H]2N(C)CC3)cc1OC` [Compound 355, [(3aS,7aS)-3a-(3,4-dimethoxyphenyl)-1-methyl-3,4,5,7a-tetrahydro-2H-indol-6-yl] 4-(dimethylamino)benzoate], the “Mouse Plasma Prodrug (%)” value in series [1] (0.0 min) worked out at 100.0%; in series [1] (60 min) it was 9.9%; in series [1] (120 min) it was 0.5%; in series [1] (240 min) it was 0.0%. The “Human Plasma Prodrug (%)” value is recorded as 100.0% in series [2] (0.0 min); over 99% in series [2] (15 min); over 99% in series [2] (30 min); over 99% in series [2] (60 min); over 99% in series [2] (120 min).
With `COc1ccc([C@@]23CCC(OC(=O)CC(C)(C)C)=C[C@@H]2N(C)CC3)cc1OC` [Compound 431, (3aS,7aS)-3a-(3,4-dimethoxyphenyl)-1-methyl-2,3,3a,4,5,7a-hexahydro-1H-indol-6-yl 3,3-dimethylbutanoate], the “Human Plasma Prodrug (%)” value in series [3] (0 min) is given as 100.0%; in series [3] (10 min) it was 82.1%; in series [3] (30 min), 69.0%; in series [3] (60 min) it was 62.8%; in series [3] (120 min) it was 52.6%; in series [3] (240 min) it was 37.4%. The “Rat Plasma Prodrug (%)” value in series [4] (0 min) is given as 100.0%; in series [4] (10 min) it was 74.5%; in series [4] (30 min), 45.7%; in series [4] (60 min), 16.5%; in series [4] (120 min) it was 2.3%; in series [4] (240 min), 0.2%.

For the origin of these results see US12269800B2, “Delivery of therapeutic alkaloid compounds” (priority 2021, dated 2025).
